For data set [1], the system named is human aortic smooth muscle cells (AoSMC). Briefly: Smooth muscle cell proliferation inhibition (3H-thymidine incorporation). Type of data set: cell-based. To be noted: 5% serum-stimulated AoSMC, 20 hr incubation, read-out: SMC Proliferation Inhibition (IC50). As for the experimental part: Cultured human aortic smooth muscle cells (AoSMC) were obtained from Clonetics, Inc. and were used below passage 10. Cells were seeded in 24-well plates. When cells were 80% confluent, they were made quiescent by adding media containing 0.2% serum (as compared to 5% serum in normal culture media) for 48 hours. The cells were then stimulated by 5% serum in the presence or absence of compounds dissolved in DMSO. To establish a dose curve and IC50 for each compound, multiple concentrations (20,15,10,5 μM) were used. Rapamycin (at 1 and 0.1 μM) was used as a positive control for the assay. After a 20 hr incubation with or without test compounds, ^3H-thymidine (0.5 μCi/per well) was added to the cells for 4 hours of labeling. Washed cells were then lysed in NaOH and the amount of^3H-thymidine incorporation was determined by a scintillation counter.
A general note: Uptake of a labelled nucleoside into DNA is a usual measure of proliferation.

Data set [2] deals with ACI-to-Lewis rat aortic allograft. Briefly: Rat aortic allograft model (graft arteriosclerosis). To be noted: for percent inhibition of IM ratio / percent inhibition of the % LN (luminal narrowing): day 90, vs vehicle control. In kind it is in vivo. As for the experimental part:
Compound A was evaluated for graft arteriosclerosis resulting from aortic heterotropic transplantation. This is a model of graft arteriopathy which is the major obstacle to long term success of solid organ transplantation.
Donor descending aortas from ACI rats were heterotypically transplanted into Lewis rat abdomens in end-to-end fashion with minimal ischemic time. 55 rats were assigned to five groups as follows:
(§1) Compound A was administered subcutaneously to recipient animals three days prior to the surgery and once daily for 90 days thereafter. […] Thereafter, the dose was reduced to 30 mg/kg/d for 6 days and then further reduced to 5 mg/kg/d for the remainder of the study.
On day 90, the allograft segment was removed, fixed in 10% buffered formal in and paraffin embedded. Sections were stained with von Geisson's elastic stain, and intima-to-media area (IM) ratio and percent luminal narrowing (% LN) were assessed by digital morphometry (See FIGS. 1 and 2). Blood was collected at regular intervals throughout the study and plasma evaluated for compound levels (See FIG. 3).

Data set [3] is described as follows: Tolerability in rat aortic allograft study. Type of data set: in vivo. Here is the method: as §1
The group receiving the 40/30/5 mg/kg/d dose of Compound A evidenced the highest degree of inhibition despite the fact that it received only a 40 mg/kg/d dose for 13 days prior to dosing down. […] After 90 days of dosing, the trough plasma levels were 10, 18 and 28 uM for the 10,20 and 40/30/5 mg/kg/d doses, respectively.

The conditions of data set [4]: background statement; cited from earlier work.
Setting [5] is: 20 mg and 40/30/5 mg/kg/d doses.

With `CC(C)(Sc1cc(C(C)(C)C)c(O)c(C(C)(C)C)c1)Sc1cc(C(C)(C)C)c(OCCCC(=O)O)c(C(C)(C)C)c1` [Compound A, 4-[4-[[1-[[3,5-bis(1,1-dimethylethyl)-4-hydroxyphenyl]thio]-1-methylethyl]thio]-2,6-bis(1,1-dimethylethyl)phenoxy]butyric acid], in data set [1], the IC50 worked out at 5.5 µM. Moreover, in data set [2] (10 mg/kg/d subcutaneous), the “percent inhibition of IM ratio” value came out at 11% and the “percent inhibition of the % LN (luminal narrowing)” value (“percent inhibition of the % LN” below) is recorded as 22%. For the same compound, in data set [2] (setting [5]), the “% LN compared to the vehicle group” value is “significantly lower” and the “IM ratio compared to the vehicle group” value is given as “significantly lower”. Also, in data set [2] (20 mg/kg/d subcutaneous), the “percent inhibition of IM ratio” value is 28% and the “percent inhibition of the % LN” value was 33%. For the same compound, the “inhibition of aortic neointimal growth” value in data set [2] (10, 20, 40/30/5 mg/kg/d) is “dose-dependent inhibition”. In data set [2] (40/30/5 mg/kg/d subcutaneous), the “percent inhibition of IM ratio” value came to 49% and the “percent inhibition of the % LN” value stood at 52%. In data set [3] (20 mg/kg/d), the toxic side effects result is reported as “without grossly discemable toxic side effects”. Further, the body weight change result in data set [3] (40 mg/kg/d group, until dose dropped to 5 mg/kg/d) is given as “initially lost weight”. Further, in data set [3] (40 mg/kg/d subcutaneous, 13 days), the “adverse findings leading to dose reduction” value is “failure to gain weight and skin irritation”. The tolerability of treatment entry in data set [3] (10 and 20 mg/kg/d subcutaneous) was “well tolerated”.
With `CC(C)(Sc1cc(C(C)(C)C)c(O)c(C(C)(C)C)c1)Sc1cc(C(C)(C)C)c(OC(=O)CN)c(C(C)(C)C)c1` [Compound I], in data set [1], the IC50 came out at 8 µM.
Still for that read-out and setting: the same measure for `CCOC(=O)CC[C@H](NCC(O)COc1c(C(C)(C)C)cc(SC(C)(C)Sc2cc(C(C)(C)C)c(O)c(C(C)(C)C)c2)cc1C(C)(C)C)C(=O)OCC` (some centres unmarked) [E]: 3.7 µM.
`C=CC[C@@H]1/C=C(\C)C[C@H](C)C[C@H](OC)[C@H]2O[C@@](O)(C(=O)C(=O)N3CCCC[C@H]3C(=O)O[C@H](/C(C)=C/[C@@H]3CC[C@@H](O)[C@H](OC)C3)[C@H](C)[C@@H](O)CC1=O)[C@H](C)C[C@@H]2OC` [FK506, tacrolimus]: the “immunosuppressive activity relative to cyclosporin” value in data set [4] is 10-100 times.

The record behind these values is patent US20030153536A1, “Compounds and methods of treating transplant rejection” (priority 2001, published 2003).
